Series [1] has as its target T1, soluble recombinant human DPP-IV (Homo sapiens, UniProt P27487).
T1 construct: immunoglobulin kappa light chain secretion signal (pSecTag2-B) (N, cleaved yes); made in house; host or cells: 293T cells, transient transfection; unpurified culture supernatant used
Put plainly: In vitro assay of enzymatic activity of recombinant soluble DPP-IV and inhibition by amino boronic dipeptides. The series is classed as biochemical. The following applies: assayed 3 minutes, 78 minutes and 16 hours after addition of Ala-Pro-AFC. An excerpt:
Production of soluble recombinant human DPP-IV. Based on information on the N-terminus of serum DPP-IV (15), a truncated DPP-IV was engineered in which a signal/leader sequence was joined to the residue in DPP-IV corresponding to the N-terminus of serum DPP-IV to allow secretion. The cDNA encoding the desired truncated human DPP-IV dimer enzyme was engineered into the mammalian secretion vector pSecTag2 (Cat# V900-20, InVitrogen Corporation). The vector, available in A, B or C versions, representing three possible phases for gene fusion, contained an immunoglobulin-kappa light chain secretion signal followed by a selection of restriction sites for gene insertion. The fusion required engineering a restriction site upstream of the chosen fusion amino acid in the 5′ end of the DPP-IV dimer enzyme nucleic acid in phase with the chosen restriction site (Sfi I) in the vector secretion sequence. The chosen fusion amino acid in the 5′ end of the DPP-IV (Ser39) was 3′ of the trans-membrane anchoring domain. The pSecTag2 version B and its Sfi I restriction site was chosen for the fusion because it minimizes the additional N-terminal, vector-encoded residues in the mature secreted protein.
Construction of the fusion was as follows. First, total RNA was isolated from the Caco-2 colorectal carcinoma cell line (ATCC HTB-37) by standard Trizol/phenol/chloroform methodology. The purified RNA (approx. 2.5 μg in a 20 μl reaction) was used to make cDNA using oligo-dT primer and a commercial reverse transcription (RT) kit (InVitrogen). […] The following thermal cycler program was used: 94° C. for 45 sec. initial denaturation, then 30 cycles of 94° C., 10 sec.; 48° C., 6 sec.; 60° C., 4 min; followed by 5-min. extension at 72° C. after cycling.
DNA from the plasmid encoding DPP-IV dimer enzyme was prepared on an approximately 400 μg scale from overnight 30 ml cultures in Luria broth with 100 μg ampicillin per ml using a commercial kit (Qiagen Maxiprep Kit).
In vitro assay of enzmatic activity ofrecombinant soluble DPP-IV and inhibition by amino boronic dipeptides. The assay reaction mixture consisted of 135 μl 50 mM HEPES/Na buffer pH 7.6, 140 mM NaCl, 10-15 gl enzyme-containing culture supernatant, dipeptide substrate Ala-Pro-(7-amino-4-trifluoromethyl coumarin) (Ala-Pro-AFC; Enzyme System Products, Dublin, Calif.) at typically 0.1-1 mM added from a 100 or 400 mM stock in dimethyl formamide. The reaction mixture was incubated at room temperature, and production of the fluorescent AFC product was measured in a fluorometer (excitation, 400 nm; emission 505 nm), either by continuous monitoring or after termination with a one to one-tenth volume of 1 -M sodium acetate, pH 4.5. Fluorometric reading were made with a Molecular Dynamics Spectra Max GeminiXS capable of reading 96-well microtiter plates. The inhibitory activity of amino boronic dipeptides was investigated by preincubation of assay reaction mixtures with varying concentrations of each compound for 10 minutes before the addition of the substrate Ala-Pro-AFC.

The target in series [2] is T2, serum DPP-IV (Mus musculus, UniProt P28843).
T2 construct: from tissue; host or cells: serum of BALB/c mice dosed orally
In words: Serum DPP-IV inhibition in vivo after oral gavage (Example 2). Also noted: species or system BALB/c mice. As for the experimental part: Assay of serum DPP-IV inhibition in vivo. […] DPP-IV activity was determined by reaction of 10 μl serum with 90 μl of 0.11 mM Ala-Pro-AFC (Enzyme System Products, Dublin, Calif.) in 50 mM HEPES/Na buffer pH 7.6, 140 mM NaCl.

In series [3] the target is T2, serum DPP-IV. In words: Serum DPP-IV activity 2 hours after oral amino boronic dipeptides (Example 4). The series is classed as in vivo, BALB/c mice. The following applies: 20 and 200 μg doses. The method, then:
(§1) Assay ofserum DPP-IV inhibition and KC/CXCL1 levels in vivo. […] Each mouse received a single administration of each amino boronic dipeptide or saline, and blood samples were withdrawn from mice 2 hours later.
Serum DPP-IV activity was determined by reaction of a 10 μl volume of serum with 0.1 mM Ala-Pro-AFC (Enzyme System Products, Dublin, Calif.) in a 100 μl volume of 50 mM HEPES/Na buffer pH 7.6, 140 mM NaCl. […] Serum DPP-IV activity was expressed as fluorescent units (FU).

A further series relates to serum KC/CXCL1. In words: Serum KC/CXCL1 levels in vivo (ELISA). Details: species or system BALB/c mice. The following applies: 0.2-200 μg/mouse oral, 2 hours. As for the experimental part:
as §1
Serum concentration of mouse KC/CXCL1 was determined by Quantikine enzyme-linked immunosorbent assay (ELISA; R&D Systems, Minneapolis, Minn.) according to the manufacturer's instructions. ELISA was performed in duplicate for each sample.
For orientation: ELISA stands for enzyme-linked immunosorbent assay.

The nature of another series: in vivo. Particulars: Lewis, rat, in vivo.
A further series deals with Lewis rats. Put plainly: in vivo. Particulars: Lewis, rat, in vivo, 5 days.
In another series the test system is ob/ob mice. Put plainly: Mouse oral glucose tolerance test (OGTT). Type of series: in vivo. The method, then:
Protocol for mouse oral glucose tolerance test (OGTT). The day of oral-glucose challenge was defined as day 0. […] Agents were administered by oral gavage. Mice were restricted to a diet of 50% of their individual calculated food intake from day −1 onwards. On day 0, blood glucose was measured at […]. immediately followed by drug administration. At time point 0, glucose was administered by oral gavage (1g/kg), and blood glucose was measured at time points 0, 30, 60, 120 and 240 minutes. Means±SE were calculated from the data of individual mice in drug-treatment groups 1 and 2.

The subject of series [4] is Zucker fa/fa rats. Put plainly: Rat oral glucose tolerance test (glucose, insulin, GLP-1). The series is classed as in vivo. Particulars: 10 μmol/kg oral. An excerpt:
Protocol for rat oral glucose tolerance test (OG7T). […] On days −11 to −8, rats were fitted with intra-arterial catheters under light isoflurane anesthesia. […] From 12:00 a.m.

For series [5], the system named is Zucker Diabetic Fatty (ZDF) rats. In words: 6 week glycemic control study in Zucker Diabetic Fatty rats. Type of series: in vivo. As for the experimental part: The design of the 6 week long study is depicted in FIG. 8. 60 male Zucker Diabetic Fatty (ZDF) rats (5 weeks of age) were obtained from Charles River Labs. The animals are housed singly and allowed to acclimatize for 1 week before the initiation of the study. 24-hour food intake and body weight was measured gravimetrically twice weekly from the start of housing. HbA1C levels were measured at Day 0, 7, 14, 28 and 46. OGTT was administered on Day 2-3, 15 minutes after the administration of the drugs. OGTT was administered again at the end of the study but in this case, drugs were given 15 hours prior to the OGTT. The 24-hour glucose profile was monitored at day 14-15 of the study.
The insulin sensitivity index was calculated at the termination of the study according to the method described by Matsuda and DeFronzo (Diabetes Care. 1999 Sep.;22(9):1462-70).

Series [6] relates to Zucker fa/fa rats. Put plainly: Single oral dose before oral glucose challenge, Zucker Fa/Fa rats (Example 10). The series is classed as in vivo. Particulars: single oral dose 15 minutes prior to oral glucose. An excerpt:
The data shown in FIG. 15 are mean values from 6 rats per treatment.

The subject of a further series is DIO rats. Put plainly: Single oral dose before oral glucose challenge, DIO rats (Example 10). Type of series: in vivo. The following applies: single oral dose 15 minutes prior to oral glucose. An excerpt: The data shown in FIG. 16A are mean values from 10 rats per treatment.
The data shown in FIG. 16B are mean values from 10 rats per treatment.

T2 sequence (P28843 37-760 limits assumed): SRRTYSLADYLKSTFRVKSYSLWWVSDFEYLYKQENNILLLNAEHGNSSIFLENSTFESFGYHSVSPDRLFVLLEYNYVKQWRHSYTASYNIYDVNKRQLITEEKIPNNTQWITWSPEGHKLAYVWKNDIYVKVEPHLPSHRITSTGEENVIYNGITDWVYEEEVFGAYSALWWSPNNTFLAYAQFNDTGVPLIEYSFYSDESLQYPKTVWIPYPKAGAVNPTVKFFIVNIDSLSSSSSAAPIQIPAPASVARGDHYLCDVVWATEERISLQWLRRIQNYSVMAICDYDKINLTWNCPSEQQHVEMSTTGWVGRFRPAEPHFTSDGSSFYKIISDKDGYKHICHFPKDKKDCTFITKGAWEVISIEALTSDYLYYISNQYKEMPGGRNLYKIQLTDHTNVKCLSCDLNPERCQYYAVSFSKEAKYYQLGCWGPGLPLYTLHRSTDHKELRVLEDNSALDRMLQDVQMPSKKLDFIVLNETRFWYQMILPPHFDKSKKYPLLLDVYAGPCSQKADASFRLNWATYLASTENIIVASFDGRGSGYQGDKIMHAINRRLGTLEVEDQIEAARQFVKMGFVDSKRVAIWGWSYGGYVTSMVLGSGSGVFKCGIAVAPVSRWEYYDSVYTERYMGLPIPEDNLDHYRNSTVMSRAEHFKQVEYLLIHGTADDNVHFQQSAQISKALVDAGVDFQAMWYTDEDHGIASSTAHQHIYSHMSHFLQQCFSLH
T1 sequence (P27487 39-766 limits assumed): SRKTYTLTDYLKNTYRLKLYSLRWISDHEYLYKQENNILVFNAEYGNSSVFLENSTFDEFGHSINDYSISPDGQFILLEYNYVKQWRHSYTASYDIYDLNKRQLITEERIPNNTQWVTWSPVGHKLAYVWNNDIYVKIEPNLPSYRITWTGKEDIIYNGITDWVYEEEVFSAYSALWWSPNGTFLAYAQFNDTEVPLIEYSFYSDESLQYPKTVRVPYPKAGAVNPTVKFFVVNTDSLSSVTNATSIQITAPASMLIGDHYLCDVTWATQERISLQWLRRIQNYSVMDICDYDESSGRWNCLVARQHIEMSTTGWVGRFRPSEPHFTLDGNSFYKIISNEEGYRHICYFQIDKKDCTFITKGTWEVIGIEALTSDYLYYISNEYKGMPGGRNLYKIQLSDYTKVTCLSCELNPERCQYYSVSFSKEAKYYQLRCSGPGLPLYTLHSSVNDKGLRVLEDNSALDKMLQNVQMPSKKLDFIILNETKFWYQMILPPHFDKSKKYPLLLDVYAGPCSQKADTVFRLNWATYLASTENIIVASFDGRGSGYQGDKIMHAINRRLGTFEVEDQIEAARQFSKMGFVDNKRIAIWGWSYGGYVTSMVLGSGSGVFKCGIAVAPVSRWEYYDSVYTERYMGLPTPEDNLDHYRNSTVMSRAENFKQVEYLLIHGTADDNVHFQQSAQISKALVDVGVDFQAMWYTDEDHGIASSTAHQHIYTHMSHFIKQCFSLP
Experimental for Lewis rats: Serum DPP-IV inhibition and observation of acute toxicity of amino boronic dipeptides in Lewis rats. […] After observations were completed or at the onset of a moribund state, humane euthanasia was performed by asphyxiation in 100% CO2.

For the compound `N[C@@H](CCC(=O)O)C(=O)N1CCC[C@H]1B(O)O` [Glu-boroPro, glutamic acid boroproline], the “persistence of DPP-IV inhibition after preincubation” value in series [1] was “sustained DPP-IV inhibition”. Further, on serum DPP-IV [2] (BALB/c mice, single oral dose, 2 hours), the “ID50 (dose reducing serum DPP-IV activity by 50% of baseline)” value is 1 μg per mouse. Besides, the “serum DPP-IV inhibition persisting” value at serum DPP-IV [2] (single oral 5 μg or 20 μg per mouse, until at least 6 hours) was “greater than 80%”. In addition, the “serum DPP-IV activity” value on serum DPP-IV [3] was “maximally inhibited serum DPP-IV activity”. Moreover, the “serum levels of KC/CXCL1” value in the series on serum KC/CXCL1 is “failed to affect serum levels of KC/CXCL1 at any of the doses tested”. In the series “in vivo”, this compound displayed an MTD at 5 days of 15 mg/kg. For the same compound, the “MTD (maximum tolerated dose)” value in the series with Lewis rats is listed as 15,000 μg/kg. Besides, the “glucose excursion post oral glucose challenge” value in the series with ob/ob mice (1.0 μmol/kg oral, 15 minutes prior to glucose) is reported as “reduced”. The “anti-glycemic effect, area under the blood glucose curve” value in the series with ob/ob mice (single 1.0 μmol/kg dose) is “significant”. Further, the blood glucose excursion result in the series on Zucker fa/fa rats [4] (15 min before glucose 2 g/kg) is “reduced”. For the same compound, the “blood plasma level of GLP-1” value in the series with Zucker fa/fa rats [4] (after oral glucose challenge) was “increased”. For the same compound, in the series on Zucker fa/fa rats [4] (after oral glucose challenge), the “blood plasma level of insulin” value is on record as “increased”. Moreover, in series [5] (10 μmole/kg, day 14-15), the “AUC of 24 hour glucose profile” value is listed as “achieve significance”. The “triglyceride (TG) lowering” value in series [5] (3 micromole/kg, 46 days of treatment) is recorded as “significant improvement”; in series [5] (10 micromole/kg, 46 days of treatment) it was “significant improvement”. The “food intake over time” value in series [5] (10 micromole/kg) is given as “apparent slight decrease in food intake”. Further, in series [5] (10 micromole/kg, Day 46), the “HbA1C level compared to vehicle” value is “significant reduction”. The “OGTT glucose levels compared to vehicle” value in series [5] (10 micromole/kg, OGTT 15 hours after drug, end of study) is listed as “significant reduction in glucose levels”. For the same compound, in series [5] (10 micromole/kg, day 14-15), the 24-hour glucose profile entry was “improved compared to the metformin and the NVP-LAF237 groups”. For the same compound, in [5] (10 micromoles/kg, Day 0 to Day 46), the “rate of increase in HbA1C over time” value was “decline in the rate of increase in HbA1C was most prominent”. The “free fatty acids (FFA)” value in [5] (46 days of treatment, compared to vehicle) is on record as “trend towards free fatty acids (FFA) reduction but this did not reach significance”. Moreover, the insulin response entry with Zucker fa/fa rats [6] and in the series with DIO rats was “improved insulin response” each time. The “insulin secretion calculated from AUC” value with DIO rats was “increased insulin secretion”.

Values taken from patent US20060094693A1, “Methods and compositions for treating glucose-associated conditions, metabolic syndrome, dyslipidemias and other conditions” (Point Therapeutics, Inc., priority 2004, published 2006).
